19 compounds from ChEMBL document CHEMBL1201862, “PubChem BioAssay data set” (2004) can be followed below.

Activity calls are given as the source filed them. Bounds are passed on as bounds.

Assay [1] can be described thus: THP-1 cell cytotoxicity, dose response, cytotoxicity control for Vif-APOBEC3G degradation inhibitor project, THP-1 cells (AID 1117359). The assay is classed as functional. The note with it: Human immunodeficiency virus 1, THP-1.
For assay [2], the target named is Voltage-dependent T-type calcium channel subunit alpha-1H (Homo sapiens, UniProt O95180). The assay is classed as functional.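 Note: channel activity triggered by adding a high calcium stimulation buffer.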
The target of assay [3] is T1, Fatty acid synthase (Homo sapiens, UniProt P49327). The assay can be described thus: FAS thioesterase domain inhibitors, dose response, biochemical, endpoint fluorescence intensity, uHTS hits (AID 624327).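 Note: fluorescence from hydrolysis of an O-methyl fluorescein acyl ester substrate by the enzyme.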 Format: functional.
T1 sequence (P49327 whole entry, the tested form may be a part): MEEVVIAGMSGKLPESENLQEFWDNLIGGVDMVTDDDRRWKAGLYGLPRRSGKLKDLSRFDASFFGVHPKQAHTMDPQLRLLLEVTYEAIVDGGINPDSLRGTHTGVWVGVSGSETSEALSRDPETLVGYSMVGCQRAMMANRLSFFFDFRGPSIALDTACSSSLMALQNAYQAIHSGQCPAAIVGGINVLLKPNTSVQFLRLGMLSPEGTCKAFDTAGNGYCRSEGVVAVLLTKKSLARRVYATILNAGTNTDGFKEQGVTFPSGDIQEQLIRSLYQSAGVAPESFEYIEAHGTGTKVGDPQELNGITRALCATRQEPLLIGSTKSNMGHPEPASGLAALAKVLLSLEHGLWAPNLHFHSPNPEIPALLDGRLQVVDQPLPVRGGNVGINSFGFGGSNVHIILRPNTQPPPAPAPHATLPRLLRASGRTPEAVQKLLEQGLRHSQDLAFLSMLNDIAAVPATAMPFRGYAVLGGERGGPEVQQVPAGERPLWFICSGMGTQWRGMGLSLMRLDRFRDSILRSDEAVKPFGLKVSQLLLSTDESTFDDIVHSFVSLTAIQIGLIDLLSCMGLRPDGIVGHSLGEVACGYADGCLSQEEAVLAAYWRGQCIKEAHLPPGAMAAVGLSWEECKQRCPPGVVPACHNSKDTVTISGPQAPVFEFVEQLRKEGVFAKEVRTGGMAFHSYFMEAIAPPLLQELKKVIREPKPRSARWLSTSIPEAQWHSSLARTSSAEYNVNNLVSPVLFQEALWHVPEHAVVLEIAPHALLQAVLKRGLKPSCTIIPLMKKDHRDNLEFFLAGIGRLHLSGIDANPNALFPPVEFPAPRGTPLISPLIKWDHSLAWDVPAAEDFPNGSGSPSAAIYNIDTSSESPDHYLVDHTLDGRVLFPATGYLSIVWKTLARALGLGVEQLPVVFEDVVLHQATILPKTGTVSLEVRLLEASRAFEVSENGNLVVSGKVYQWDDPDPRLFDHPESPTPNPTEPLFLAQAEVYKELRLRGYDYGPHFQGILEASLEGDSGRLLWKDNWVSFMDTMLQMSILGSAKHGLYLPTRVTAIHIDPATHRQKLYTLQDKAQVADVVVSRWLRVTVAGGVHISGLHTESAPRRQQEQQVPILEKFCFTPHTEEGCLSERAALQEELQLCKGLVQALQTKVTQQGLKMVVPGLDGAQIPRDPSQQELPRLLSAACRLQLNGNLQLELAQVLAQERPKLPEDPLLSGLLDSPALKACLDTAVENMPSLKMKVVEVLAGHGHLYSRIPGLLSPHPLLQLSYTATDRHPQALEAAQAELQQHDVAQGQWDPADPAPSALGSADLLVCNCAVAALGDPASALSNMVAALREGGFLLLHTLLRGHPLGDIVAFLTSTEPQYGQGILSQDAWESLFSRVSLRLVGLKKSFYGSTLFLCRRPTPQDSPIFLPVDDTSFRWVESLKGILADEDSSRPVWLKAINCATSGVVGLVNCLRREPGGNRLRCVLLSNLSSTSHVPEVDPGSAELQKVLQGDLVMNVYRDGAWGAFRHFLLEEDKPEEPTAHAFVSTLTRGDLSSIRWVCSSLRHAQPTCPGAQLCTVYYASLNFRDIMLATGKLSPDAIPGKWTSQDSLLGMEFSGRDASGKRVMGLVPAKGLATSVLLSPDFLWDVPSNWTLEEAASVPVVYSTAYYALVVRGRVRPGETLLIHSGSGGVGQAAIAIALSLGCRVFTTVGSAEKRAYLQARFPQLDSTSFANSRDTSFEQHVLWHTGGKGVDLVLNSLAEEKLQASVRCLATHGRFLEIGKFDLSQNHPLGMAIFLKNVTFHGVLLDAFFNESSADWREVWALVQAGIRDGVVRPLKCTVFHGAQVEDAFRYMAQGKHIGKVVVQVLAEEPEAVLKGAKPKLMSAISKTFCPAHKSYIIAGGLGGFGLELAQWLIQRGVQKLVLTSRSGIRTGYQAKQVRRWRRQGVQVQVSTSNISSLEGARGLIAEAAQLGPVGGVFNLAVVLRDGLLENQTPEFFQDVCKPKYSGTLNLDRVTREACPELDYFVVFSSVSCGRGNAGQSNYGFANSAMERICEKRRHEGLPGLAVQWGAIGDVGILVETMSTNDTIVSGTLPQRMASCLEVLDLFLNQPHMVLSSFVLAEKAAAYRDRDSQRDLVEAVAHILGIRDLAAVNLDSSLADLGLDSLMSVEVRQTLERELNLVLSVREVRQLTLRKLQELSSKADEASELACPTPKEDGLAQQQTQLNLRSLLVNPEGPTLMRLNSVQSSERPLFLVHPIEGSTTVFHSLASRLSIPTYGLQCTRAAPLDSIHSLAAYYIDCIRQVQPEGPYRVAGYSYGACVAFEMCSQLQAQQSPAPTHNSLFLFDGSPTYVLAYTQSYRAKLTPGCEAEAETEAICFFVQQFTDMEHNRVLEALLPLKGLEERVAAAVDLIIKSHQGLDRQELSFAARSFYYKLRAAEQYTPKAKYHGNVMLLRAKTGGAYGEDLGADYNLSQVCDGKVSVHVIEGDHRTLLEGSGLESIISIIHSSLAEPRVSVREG
Assay [4] addresses T1, Fatty acid synthase. The assay is described as follows: FAS thioesterase domain inhibitors, dose response, biochemical, kinetic fluorescence intensity (AID 624326).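 Note: rate of fluorescence rise from hydrolysis of a fluorogenic O-methyl fluorescein ester substrate.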 Format: functional.
In a further assay the target is Cytochrome P450 3A4 (Homo sapiens, UniProt P08684).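 Note: CYP3A4 tested as one member of a cytochrome P450 panel screen.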
Chain of Cytochrome P450 3A4 (P08684 whole entry): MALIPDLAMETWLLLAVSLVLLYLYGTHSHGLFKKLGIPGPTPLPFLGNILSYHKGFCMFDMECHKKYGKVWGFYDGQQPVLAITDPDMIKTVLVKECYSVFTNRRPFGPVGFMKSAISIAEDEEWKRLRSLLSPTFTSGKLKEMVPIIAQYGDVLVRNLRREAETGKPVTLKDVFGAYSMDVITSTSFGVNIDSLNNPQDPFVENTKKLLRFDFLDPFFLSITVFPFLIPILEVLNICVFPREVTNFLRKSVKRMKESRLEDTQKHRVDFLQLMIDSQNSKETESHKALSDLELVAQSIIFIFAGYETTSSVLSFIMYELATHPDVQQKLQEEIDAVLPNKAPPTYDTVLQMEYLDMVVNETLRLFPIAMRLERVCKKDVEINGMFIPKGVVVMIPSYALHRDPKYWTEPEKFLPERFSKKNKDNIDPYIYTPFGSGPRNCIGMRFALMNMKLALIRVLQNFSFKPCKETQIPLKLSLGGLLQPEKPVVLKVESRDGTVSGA
The target in a further assay is T2, Cytochrome P450 1A2 (Homo sapiens, UniProt P05177).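 Note: PubChem cytochrome P450 panel assay, CYP1A2 panel member.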
T2 sequence (P05177 whole entry): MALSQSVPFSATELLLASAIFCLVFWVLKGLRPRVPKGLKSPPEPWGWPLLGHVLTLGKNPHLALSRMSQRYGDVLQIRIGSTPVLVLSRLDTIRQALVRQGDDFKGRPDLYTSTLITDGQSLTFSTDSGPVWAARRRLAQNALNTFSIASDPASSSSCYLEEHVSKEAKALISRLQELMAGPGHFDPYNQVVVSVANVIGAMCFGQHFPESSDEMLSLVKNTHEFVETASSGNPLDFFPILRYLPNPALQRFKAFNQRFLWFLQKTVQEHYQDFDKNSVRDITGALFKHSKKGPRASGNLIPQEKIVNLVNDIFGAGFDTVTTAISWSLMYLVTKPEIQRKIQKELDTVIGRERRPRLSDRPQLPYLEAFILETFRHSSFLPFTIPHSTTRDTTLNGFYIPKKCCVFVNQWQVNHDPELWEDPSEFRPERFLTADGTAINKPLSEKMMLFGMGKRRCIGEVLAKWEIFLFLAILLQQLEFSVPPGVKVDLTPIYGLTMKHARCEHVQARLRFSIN

In another assay the target is Genome polyprotein (dengue virus type 2, UniProt P29990). The assay can be described thus: Dengue-2 NS5 methyltransferase inhibitors, primary screen, biochemical, confirmation dose response (AID 588689). Format: functional.
Chain of Genome polyprotein (P29990 2492-3391 limits assumed): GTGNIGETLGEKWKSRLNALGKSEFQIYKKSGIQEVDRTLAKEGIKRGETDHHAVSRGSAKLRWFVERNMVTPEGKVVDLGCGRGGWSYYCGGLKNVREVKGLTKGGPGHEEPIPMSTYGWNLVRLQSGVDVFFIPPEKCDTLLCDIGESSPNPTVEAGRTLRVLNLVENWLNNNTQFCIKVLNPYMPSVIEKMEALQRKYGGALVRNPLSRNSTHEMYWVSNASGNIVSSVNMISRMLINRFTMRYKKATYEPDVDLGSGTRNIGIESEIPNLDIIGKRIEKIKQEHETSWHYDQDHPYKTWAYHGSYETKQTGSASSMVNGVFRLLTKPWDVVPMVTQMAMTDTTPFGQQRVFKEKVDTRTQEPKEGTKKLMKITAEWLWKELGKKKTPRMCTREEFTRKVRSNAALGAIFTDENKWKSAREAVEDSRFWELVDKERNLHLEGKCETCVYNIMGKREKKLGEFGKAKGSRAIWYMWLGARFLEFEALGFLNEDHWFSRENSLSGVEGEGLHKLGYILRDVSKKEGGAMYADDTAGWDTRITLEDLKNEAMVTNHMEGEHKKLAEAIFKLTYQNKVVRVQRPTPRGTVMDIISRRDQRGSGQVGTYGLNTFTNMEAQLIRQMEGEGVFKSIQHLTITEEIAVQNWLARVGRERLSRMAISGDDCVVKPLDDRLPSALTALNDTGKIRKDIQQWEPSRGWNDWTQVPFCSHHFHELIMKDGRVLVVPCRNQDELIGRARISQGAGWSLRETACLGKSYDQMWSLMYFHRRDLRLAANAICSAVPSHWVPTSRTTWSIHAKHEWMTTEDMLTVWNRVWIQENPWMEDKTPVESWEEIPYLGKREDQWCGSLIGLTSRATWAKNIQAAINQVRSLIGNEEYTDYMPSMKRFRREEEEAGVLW
The target in assay [5] is T3, Polyadenylate-binding protein 1 (Homo sapiens, UniProt P11940). The assay is described as follows: PABP1 MLLE–PAM2 binding inhibitor potency, dose response, biochemical, fluorescence polarization, FITC-PAM2 peptide (AID 602259). Format: functional. The note with it: read-out: IC50_Mean. Background: Fluorescence polarisation rises when a labelled molecule tumbles more slowly, as on binding a larger partner.
T3 sequence (P11940 whole entry): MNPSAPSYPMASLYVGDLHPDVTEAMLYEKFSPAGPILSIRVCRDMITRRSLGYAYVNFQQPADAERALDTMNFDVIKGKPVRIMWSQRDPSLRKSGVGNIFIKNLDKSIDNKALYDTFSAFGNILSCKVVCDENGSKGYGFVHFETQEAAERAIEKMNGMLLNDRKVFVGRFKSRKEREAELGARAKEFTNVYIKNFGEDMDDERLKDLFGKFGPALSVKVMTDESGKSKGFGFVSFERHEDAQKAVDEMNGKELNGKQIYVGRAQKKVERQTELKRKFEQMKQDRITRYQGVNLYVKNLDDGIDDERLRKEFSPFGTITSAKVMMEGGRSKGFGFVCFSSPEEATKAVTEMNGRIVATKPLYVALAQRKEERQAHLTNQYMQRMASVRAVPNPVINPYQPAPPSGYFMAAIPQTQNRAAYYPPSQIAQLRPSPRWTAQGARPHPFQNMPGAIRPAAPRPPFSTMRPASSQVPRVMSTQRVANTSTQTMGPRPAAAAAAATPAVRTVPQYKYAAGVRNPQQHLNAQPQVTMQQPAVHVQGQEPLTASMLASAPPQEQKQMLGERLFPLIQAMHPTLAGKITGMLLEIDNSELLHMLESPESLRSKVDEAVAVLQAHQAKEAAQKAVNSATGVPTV

The target of assay [6] is T3, Polyadenylate-binding protein 1. The assay can be described thus: PABP1 MLLE–PAM2 interaction inhibitors, dose response, miRNA deadenylation inhibitor project, biochemical, fluorescence polarization, Cy5-PAM2 peptide, secondary (AID 602260). Format: functional. The note with it: read-out: IC50_Mean.
Assay [7] has as its target T4, Rac GTPase-activating protein 1 (Homo sapiens, UniProt Q9H0H5).
T4 sequence (Q9H0H5 whole entry): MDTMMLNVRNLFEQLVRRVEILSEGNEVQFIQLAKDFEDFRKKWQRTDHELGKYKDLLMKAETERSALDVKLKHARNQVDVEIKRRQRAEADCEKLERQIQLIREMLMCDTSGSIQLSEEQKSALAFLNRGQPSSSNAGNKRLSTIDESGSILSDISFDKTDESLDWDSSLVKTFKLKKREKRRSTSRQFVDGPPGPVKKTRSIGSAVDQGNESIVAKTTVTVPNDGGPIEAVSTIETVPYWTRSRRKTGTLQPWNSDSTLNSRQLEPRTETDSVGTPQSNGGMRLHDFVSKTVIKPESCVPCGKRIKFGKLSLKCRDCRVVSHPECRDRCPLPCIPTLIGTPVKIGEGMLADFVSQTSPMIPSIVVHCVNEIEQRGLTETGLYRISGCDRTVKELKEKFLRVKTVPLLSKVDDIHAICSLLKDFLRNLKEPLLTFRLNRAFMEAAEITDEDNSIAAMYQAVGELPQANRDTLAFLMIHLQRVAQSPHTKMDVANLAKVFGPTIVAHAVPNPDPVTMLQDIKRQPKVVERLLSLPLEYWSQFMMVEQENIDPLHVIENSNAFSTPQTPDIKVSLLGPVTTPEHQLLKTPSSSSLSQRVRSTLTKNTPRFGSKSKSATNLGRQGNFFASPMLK
The assay is described as follows: MgcRacGAP GTPase-activating activity inhibitors, confirmation, biochemical, ADP Hunter fluorescence, primary and confirmatory (AID 624330). The assay is classed as functional.

A short description of assay [8]: inhibitors of clade B AD8 Env fusion, dose response, cell-based, cherry-pick (AID 652062).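 Note: luciferase signal from cell-cell fusion driven by HIV-1 clade B AD8 Env; potency is for inhibitors of fusion seen as a drop in luminescence.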 The assay is classed as functional.
Assay [9] is described as follows: ZM109 Env clade C HIV-1 fusion inhibitors, dose response, HeLa effector, CEM target cells, luciferase, cherry-pick (AID 652058). The assay is classed as functional, cell-based.
The nature of assay [10]: inhibitors of HIV Env-driven cell fusion, dose response, cherry-pick (AID 652057). Format: functional, cell-based.
Assay [11] has as its target T5, Short transient receptor potential channel 4 (Mus musculus, UniProt Q9QUQ5).
T5 sequence (Q9QUQ5 whole entry): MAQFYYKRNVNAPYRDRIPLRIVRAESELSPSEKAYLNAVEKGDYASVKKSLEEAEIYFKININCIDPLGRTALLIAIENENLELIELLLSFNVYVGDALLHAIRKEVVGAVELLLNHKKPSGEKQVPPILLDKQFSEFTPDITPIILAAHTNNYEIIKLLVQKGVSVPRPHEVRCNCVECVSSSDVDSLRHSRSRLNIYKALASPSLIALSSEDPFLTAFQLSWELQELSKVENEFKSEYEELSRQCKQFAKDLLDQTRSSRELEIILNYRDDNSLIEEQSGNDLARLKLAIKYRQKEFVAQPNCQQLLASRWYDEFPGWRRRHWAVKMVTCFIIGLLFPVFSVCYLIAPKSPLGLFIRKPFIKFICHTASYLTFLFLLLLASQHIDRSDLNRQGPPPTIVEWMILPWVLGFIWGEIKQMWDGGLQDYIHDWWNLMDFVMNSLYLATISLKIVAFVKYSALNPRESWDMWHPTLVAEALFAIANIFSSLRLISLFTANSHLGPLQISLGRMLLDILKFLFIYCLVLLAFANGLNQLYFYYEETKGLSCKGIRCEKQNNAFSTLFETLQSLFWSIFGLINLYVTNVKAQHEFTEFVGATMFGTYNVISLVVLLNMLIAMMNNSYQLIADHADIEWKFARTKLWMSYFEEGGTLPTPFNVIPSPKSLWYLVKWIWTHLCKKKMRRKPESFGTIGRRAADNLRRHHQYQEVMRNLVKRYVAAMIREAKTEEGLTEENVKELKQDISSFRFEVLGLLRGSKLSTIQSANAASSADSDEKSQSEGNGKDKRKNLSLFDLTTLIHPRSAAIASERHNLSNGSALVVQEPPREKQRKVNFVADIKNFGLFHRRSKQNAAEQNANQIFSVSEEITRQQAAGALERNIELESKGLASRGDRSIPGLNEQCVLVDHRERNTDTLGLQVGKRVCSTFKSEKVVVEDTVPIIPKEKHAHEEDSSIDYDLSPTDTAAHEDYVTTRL
The assay can be described thus: mouse TRPC4 channel inhibitors, dose response, cell-based, HEK293 TRPC4/mu-opioid, Fluo-4 calcium (AID 434942).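 Note: potency of inhibitors blocking the TRPC4 calcium response.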 Format: functional.

Take `CC1CCN(c2ccc([N+](=O)[O-])c(SCCO)c2)CC1`: the CC50 in [1] was > 40 µM (active).
As to `Cc1ccc(-c2noc(CN(C(=O)C(c3ccccc3)c3ccccc3)C(C)C)n2)cc1`, the EC50 in assay [2] is 5.14 µM (active).
On the same count and under the same terms, the same measure for `COc1ccc(N2CCN(C(=O)CC(NC(N)=O)c3cccc(Oc4ccccc4)c3)CC2)cc1` (stereo not drawn): 13.7 µM (active).
In the case of `Cc1nn(Cc2ccc([N+](=O)[O-])cc2)c(=O)n1N(C)c1ncc(C(F)(F)F)cc1Cl`, the IC50 on Fatty acid synthase [3] was 4.91 µM (active); on Fatty acid synthase [4], 2.51 µM (active).
The corresponding values for `COC(=O)N1C(=O)[C@](Cc2ccccc2)(c2ccccc2)N1C(=O)OC` are 5.18 µM (active) and 4.85 µM (active).
The corresponding values for `CN1C(C(=O)NCc2cccc(Br)c2)CC2Cn3c(nc4cc(Cl)c(Cl)cc43)C21` (stereo not drawn) are 15.2 µM (active) and 10.3 µM (active).
As to `CC(C)c1ccc(CN(C(=O)C2COc3ccccc3O2)C2CCS(=O)(=O)C2)cc1` (stereo not drawn), the figures for the AC50 on Cytochrome P450 3A4 and on Cytochrome P450 1A2 were 28.2 µM (inconclusive) and 25.1 µM (inconclusive), respectively. The 50% effective concentration (EC50) in assay [2] is 6.86 µM (active).
With `COc1cccc(/C=C2\C(=O)C(=O)c3ccccc32)c1`, the IC50 at Genome polyprotein is 12.9 µM (active); in assay [5] it was > 66 µM (inactive); in assay [6], > 66 µM (inactive); in assay [7], 47.3 µM (active).
For the compound `CC[C@]1(C(=O)OC)[C@H]2C(=O)N(Cc3ccccc3)C(=O)[C@H]2[C@H]2CN=C(SCC(=O)c3ccccc3)N21`, the IC50 in [5] and in [6] was > 66 µM (inactive) in each case.
Regarding `COc1ccc(NC(=O)Nc2ccc3c(c2)C(=O)N([C@@H](C)CO)C[C@H](C)[C@H](CN(C)S(=O)(=O)c2ccc(C)cc2)O3)cc1`, the results for the concentration at half-maximal activity (AC50) in assay [8], in assay [9] and in assay [10] were 23 µM (active), 17.5 µM (active) and 6.5 µM (active), respectively.
On to `O=C(NC(=S)Nc1ccccc1Cl)c1cncc(Br)c1`, for which the IC50 in [5] and in assay [6] was > 66 µM (inactive) each time.
In the case of `CCN(CC)CCSC(=O)C(c1ccccc1)c1ccccc1`, the IC50 in [5] and in [6] was > 66 µM (inactive) throughout.
`C[C@H]1CN([C@@H](C)CO)S(=O)(=O)c2ccc(Br)cc2O[C@H]1CN(C)Cc1ccccc1`: the AC50 in assay [8] was 33.4 µM (active); in assay [9], 20.6 µM (active); in assay [10], 23.5 µM (active).
As for `O=C(COc1ccc(Cl)cc1)Nc1ccc(C(=O)O)cc1NC(=O)COc1ccc(Cl)cc1`, the IC50 at Fatty acid synthase [3] is 15.3 µM (active); on Fatty acid synthase [4] it was 7.29 µM (active). Also, the EC50 in [11] is 1.3 nM (active).
Consider `COC(=O)C(CCCCNC(=O)c1ccc([N+](=O)[O-])cc1)NC(=O)c1ccc([N+](=O)[O-])cc1` (stereo not drawn), for which the IC50 on Fatty acid synthase [3] was 33.6 µM (inactive); on Fatty acid synthase [4], 55.8 µM (inactive).
Consider `c1ccc2c3c([nH]c2c1)CNCC3` [TRYPTOLINE], for which, in assay [1], the 50% cytotoxic concentration (CC50) was 28.7 µM (active).
`Cc1cc(C)c2c(N)c(C(=O)NCC3CCCCC3)sc2n1`: the IC50 in assay [5] and in assay [6] was > 66 µM (inactive) each time.
With `O=C(c1cccc(C(F)(F)F)c1)C1CCCN(C(=O)CCCN2CCCC2=O)C1` (stereo not drawn), the CC50 in [1] is > 40 µM (active).
Turning to `O=C(CC1NCCNC1=O)Nc1ccc(Oc2ccccc2)cc1` (stereo not drawn), in assay [2], the EC50 was 8.83 µM (active).

One may read the CC50 as the concentration at which the toxic effect on the cells reaches its halfway point. The term EC50 denotes the concentration giving half of the maximal effect. The AC50 is the concentration giving half of the maximal activity seen.
